Test results published in patent US20230146507A1, “N-PHENYL-3-MERCAPTOPROPANAMIDE DERIVATIVES AS METALLO-BETA-LACTAMASE INHIBITORS FOR THE TREATMENT OF BACTERIAL INFECTIONS” (Helmholtz-Zentrum Für Infektionsforschung GmbH, priority 2020, published 2023).
≈ marks a conversion by molar mass, not a printed value.

What was measured:
E. coli VIM-1 (T2544) = assay: Checkerboard assay with imipenem, E. coli VIM-1 (T2544); format: cell-based
Procedure: (§1) Fractional inhibitory concentration index (FICI). The checkerboard assay was performed to test for synergy in vitro. […] FICIs≤0.5 were defined as synergistic; FICIs from >0.5 to […] were defined as additive; FICIs from 1 to ≤4 were defined as indifferent and FICIs>4 were defined as antagonistic (Doern, C. D. When Does 2 plus 2 Equal 5? A Review of Antimicrobial Synergy Testing. J. Clin. Microbial. 2014, 52 (12), 4124-4128. https://doi.org/10.1128/JCM.01121-14).

E. coli IMP-1 (T2360) = assay: Checkerboard assay with imipenem, E. coli IMP-1 (T2360); format: cell-based
Procedure: as §1

VIM-1 = molecular target: T1, VIM-1 (Pseudomonas aeruginosa, UniProt A0A0F7KYQ8); assay: In vitro inhibition assay (kinetic fluorescence-based activity assay), VIM-1; format: biochemical; details: Means and SD of at least two independent experiments
T1 construct: made in house
Procedure: (§2) Protein expression and purification. The expression of IMP-7, VIM-1, and NDM-1 was performed according to the protocol previously published by Klingler et al. (Klingler, F. M.; Wichelhaus, T. A.; Frank, D.; Cuesta-Bernal, J.; El-Delik, J.; Müller, H. F.; Sjuts, H.; Gottig, S.; Koenigs, A.; Pos, K. M.; et al. Approved Drugs Containing Thiols as Inhibitors of Metallo-β-Lactamases: Strategy to Combat Multidrug-Resistant Bacteria. J. Med. Chem. 2015, 58 (8), 3626-3630. https://doi.org/10.1021/jm501844d) with slight modifications.
(§3) In vitro inhibition assay. Activity assays for NDM-1, VIM-1, VIM-2 and IMP-7 were carried out, as described by Klingler et al. Final protein concentrations were 0.5 nM (NDM-1), 4.0 nM (VIM-1), and 0.1 nM (IMP-7) in a 50 mM HEPES buffer (pH 7.5, 0.01% Triton X-100) Substrate (Fluorocillin™ (Invitrogen, Darmstadt, Germany) was dissolved in assay buffer to a final concentration of 888 nM. Test compounds were dissolved and pre-diluted in DMSO (final concentration: 1%). In a black polystyrol 96-well plate (Corning) an amount of […] of the respective inhibitor solution at different concentrations was incubated with […] of respective protein containing buffer for 30 minutes at room temperature. […] of substrate solution was added. The readout of the emitted fluorescence was started immediately (45 s for 30 cycles) using a Tecan Infinite F200Pro (Tecan Group Ltd; excitation at 495 nm and emission at 525 nm). Blank controls were performed without enzyme. Positive controls were performed with enzyme but without inhibitor. The inhibitory activity of each test compound was measured in three independent experiments. For calculation of IC50 values, data obtained from measurements with eight different inhibitor concentrations were used. For the evaluation of the sigmoidal dose response equation (variable slope with four parameters) GraphPad Prism 5 (GraphPad Software, La Jolla, Calif., USA) was used.

[1] = system: K. pneumoniae NDM-1 (T2301); assay: MIC assay, clinical isolate; format: cell-based
E. coli KPC-2 (T2435) = assay: MIC assay, clinical isolate; format: cell-based; details: intrinsic antimicrobial activity
[2] = system: P. aeruginosa IMP-1 (T2325); assay: MIC assay, clinical isolate; format: cell-based
E. cloacae NDM-1 (T2311) = assay: MIC assay, clinical isolate; format: cell-based
NDM-1 = molecular target: T2, NDM-1 (Klebsiella pneumoniae, UniProt C7C422); assay: In vitro inhibition assay (kinetic fluorescence-based activity assay), NDM-1; format: biochemical; details: Means and SD of at least two independent experiments
T2 construct: made in house
Procedure: as §2, §3

E. cloacae GIM-1 (T2218) = assay: MIC assay, clinical isolate; format: cell-based
E. coli NDM-7 (T2239) = assay: MIC assay, clinical isolate; format: cell-based
IMP-7 = IMP-7 (Pseudomonas aeruginosa, UniProt Q93AU3); assay: In vitro inhibition assay (kinetic fluorescence-based activity assay), IMP-7; format: biochemical; details: Means and SD of at least two independent experiments
Procedure: as §2, §3

[3] = system: A. baumannii OXA-23 (T2434); assay: MIC assay, clinical isolate; format: cell-based; details: intrinsic antimicrobial activity
E. coli NDM-5 (T2351) = assay: MIC assay, clinical isolate; format: cell-based
[4] = system: different isolates from E. coli and P. aeruginosa; assay: MIC assay, intrinsic antibacterial activity; format: cell-based; details: compound alone
E. cloacae VIM-1 (T2353) = assay: MIC assay, clinical isolate; format: cell-based
E. coli NDM-1 (T2359) = assay: Checkerboard assay with imipenem, E. coli NDM-1 (T2359); format: cell-based; details: for Imipenem MIC: Table 6
Procedure: as §1

[5] = system: P. aeruginosa VIM-1 (T2357); assay: MIC assay, clinical isolate; format: cell-based; details: intrinsic antimicrobial activity
[6] = system: S. marcescens NDM-1 (T2352); assay: MIC assay, clinical isolate; format: cell-based
E. coli producing NDM-1 = assay: MIC of imipenem in the presence of HIPS1686; format: cell-based; details: Escherichia coli
[7] = intrinsic antimicrobial activity
[8] = Escherichia coli, read-out: Imipenem MIC

Chain of IMP-7 (Q93AU3 entry or part of it): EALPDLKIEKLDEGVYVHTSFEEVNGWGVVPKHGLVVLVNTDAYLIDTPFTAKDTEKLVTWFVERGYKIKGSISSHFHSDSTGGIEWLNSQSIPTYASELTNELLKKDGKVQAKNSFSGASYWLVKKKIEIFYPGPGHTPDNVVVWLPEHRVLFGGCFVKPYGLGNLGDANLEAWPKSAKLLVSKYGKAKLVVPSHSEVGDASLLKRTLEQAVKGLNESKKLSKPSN
T2 sequence (C7C422 29-270, looked up, species assumed): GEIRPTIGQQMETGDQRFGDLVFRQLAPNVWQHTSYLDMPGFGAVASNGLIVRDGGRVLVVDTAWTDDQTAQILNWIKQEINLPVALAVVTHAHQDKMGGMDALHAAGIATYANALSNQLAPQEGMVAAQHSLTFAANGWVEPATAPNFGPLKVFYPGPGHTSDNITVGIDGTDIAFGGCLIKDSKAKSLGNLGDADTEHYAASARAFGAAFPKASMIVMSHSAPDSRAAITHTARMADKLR

With `O=C(CCS)Nc1cccc(C(=O)O)c1` [HIPS5694, 3-(3-mercaptopropanamido)benzoic acid] the “Imipenem MIC” value (E. coli VIM-1 (T2544); +2 mg/L compound) was 32 µg/mL, the “Imipenem MIC” value (E. coli VIM-1 (T2544); +4 mg/L compound) was 32 µg/mL and the “Imipenem MIC” value (E. coli VIM-1 (T2544); +8 mg/L compound) was 32 µg/mL. For the same molecule, the “Imipenem MIC” value (E. coli VIM-1 (T2544); +16 mg/L compound) was 16 µg/mL, the “Imipenem MIC” value (E. coli VIM-1 (T2544); +32 mg/L compound) was 16 µg/mL and the “Imipenem MIC” value (E. coli VIM-1 (T2544); +64 mg/L compound) was 8 µg/mL. For the same molecule, the “Imipenem MIC” value (E. coli VIM-1 (T2544); +128 mg/L compound) was 0.5 µg/mL, the “Imipenem MIC” value (E. coli IMP-1 (T2360); +2 mg/L compound) was 2 µg/mL and the “Imipenem MIC” value (E. coli IMP-1 (T2360); +4 mg/L compound) was 2 µg/mL. For the same molecule, the “Imipenem MIC” value (E. coli IMP-1 (T2360); +8 mg/L compound) was 1 µg/mL, the “Imipenem MIC” value (E. coli IMP-1 (T2360); +16 mg/L compound) was 1 µg/mL and the “Imipenem MIC” value (E. coli IMP-1 (T2360); +32 mg/L compound) was 1 µg/mL. For the same molecule, the “Imipenem MIC” value (E. coli IMP-1 (T2360); +64 mg/L compound) was 0.5 µg/mL, the “Imipenem MIC” value (E. coli IMP-1 (T2360); +128 mg/L compound) was 0.5 µg/mL and the IC50 (VIM-1) was 1.2 µM. For the same molecule, the “MIC (mg/L) Imipenem (+HIPS 5694 128 mg/L)” value (“MIC (mg/L) Imipenem” for short) ([1]; +HIPS 5694 128 mg/L) was 0.5 mg/L (≈ 2.22 µM), the “HIPS 5694 MIG” value [1, 7] was greater than 256 mg/L and the “HIPS 5694 MIG” value (E. coli KPC-2 (T2435)) was greater than 256 mg/L. For the same molecule, the “HIPS 5694 MIG” value ([2]; intrinsic antimicrobial activity, P. aeruginosa IMP-1 (T2325)) was greater than 256 mg/L, the “MIC (mg/L) Imipenem” value (E. cloacae NDM-1 (T2311); +HIPS 5694 128 mg/L) was 1 mg/L (≈ 4.44 µM) and the “HIPS 5694 MIG” value (E. cloacae NDM-1 (T2311); [7]) was greater than 256 mg/L. The IC50 (NDM-1) was 4 µM, the “HIPS 5694 MIG” value (E. cloacae GIM-1 (T2218); intrinsic antimicrobial activity, E. cloacae GIM-1 (T2218)) was greater than 256 mg/L and the “MIC (mg/L) Imipenem” value (E. coli NDM-7 (T2239); +HIPS 5694 128 mg/L, E. coli NDM-7 (T2239)) was 2 mg/L (≈ 8.88 µM). For the same molecule, the “HIPS 5694 MIG” value (E. coli NDM-7 (T2239); intrinsic antimicrobial activity, E. coli NDM-7 (T2239)) was greater than 256 mg/L, the IC50 (IMP-7) was 6.4 ± 0.6 µM and the “HIPS 5694 MIG” value [3] was greater than 256 mg/L. The “MIC (mg/L) Imipenem” value (E. coli NDM-5 (T2351); +HIPS 5694 128 mg/L) was 2 mg/L (≈ 8.88 µM), the “HIPS 5694 MIG” value (E. coli NDM-5 (T2351); [7]) was greater than 256 mg/L and the “intrinsic antibacterial activity (MIC)” value [4] was “no intrinsic antibacterial activity”. For the same molecule, the “MIC (mg/L) Imipenem” value (E. cloacae VIM-1 (T2353); +HIPS 5694 128 mg/L) was 2 mg/L (≈ 8.88 µM), the “HIPS 5694 MIG” value (E. cloacae VIM-1 (T2353); [7]) was greater than 256 mg/L and the “Imipenem MIC” value (E. coli NDM-1 (T2359); +2 mg/L compound) was 128 µg/mL. For the same molecule, the “Imipenem MIC” value (E. coli NDM-1 (T2359); +4 mg/L compound) was 128 µg/mL, the “Imipenem MIC” value (E. coli NDM-1 (T2359); +8 mg/L compound) was 64 µg/mL and the “Imipenem MIC” value (E. coli NDM-1 (T2359); +16 mg/L compound) was 64 µg/mL. The “Imipenem MIC” value (E. coli NDM-1 (T2359); +32 mg/L compound) was 8 µg/mL, the “Imipenem MIC” value (E. coli NDM-1 (T2359); +64 mg/L compound) was 2 µg/mL and the “Imipenem MIC” value (E. coli NDM-1 (T2359); +128 mg/L compound) was no more than 0.5 µg/mL. The “HIPS 5694 MIG” value [5] was greater than 256 mg/L, the “MIC (mg/L) Imipenem” value ([6]; +HIPS 5694 128 mg/L, S. marcescens NDM-1 (T2352)) was 4 mg/L (≈ 17.8 µM) and the “HIPS 5694 MIG” value ([6]; intrinsic antimicrobial activity, S. marcescens NDM-1 (T2352)) was greater than 256 mg/L.

In the case of `C[C@@H](O)[C@H]1C(=O)N2C(C(=O)O)=C(SCCN=CN)C[C@H]12` [Imipenem, reference compound], the MIC (E. coli VIM-1 (T2544); Escherichia coli, read-out: Imipenem MIC, without compound) is reported as 32 µg/mL, the “Imipenem MIC” value (E. coli VIM-1 (T2544); without compound) is reported as 64 µg/mL and the MIC (E. coli IMP-1 (T2360); [8]) is reported as 2 µg/mL. The MIC ([2]; Pseudomonas aeruginosa, read-out: MIC (mg/L) Imipenem) was 64 mg/L (≈ 214 µM), the MIC (E. cloacae GIM-1 (T2218); Enterobacter cloacae, read-out: MIC (mg/L) Imipenem) was 2 mg/L (≈ 6.68 µM) and the MIC (E. coli NDM-7 (T2239); Escherichia coli, read-out: MIC (mg/L) Imipenem) was 32 mg/L (≈ 107 µM). The MIC (E. coli producing NDM-1) was 128 µg/mL, the MIC (E. coli NDM-1 (T2359); [8]) was 128 µg/mL and the “Imipenem MIC” value (E. coli NDM-1 (T2359); without compound) was 128 µg/mL. The MIC ([6]; Serratia marcescens, read-out: MIC (mg/L) Imipenem) was 256 mg/L (≈ 855 µM).
